Key:
[1] = target: T1, Bifunctional epoxide hydrolase 2 (Homo sapiens, UniProt P34913); assay: Inhibition of recombinant human sEH preincubated for 10 mins followed by PHOME substrate addition and measured after 60 mins by fluorescence-based assay
T1 sequence (P34913 whole entry): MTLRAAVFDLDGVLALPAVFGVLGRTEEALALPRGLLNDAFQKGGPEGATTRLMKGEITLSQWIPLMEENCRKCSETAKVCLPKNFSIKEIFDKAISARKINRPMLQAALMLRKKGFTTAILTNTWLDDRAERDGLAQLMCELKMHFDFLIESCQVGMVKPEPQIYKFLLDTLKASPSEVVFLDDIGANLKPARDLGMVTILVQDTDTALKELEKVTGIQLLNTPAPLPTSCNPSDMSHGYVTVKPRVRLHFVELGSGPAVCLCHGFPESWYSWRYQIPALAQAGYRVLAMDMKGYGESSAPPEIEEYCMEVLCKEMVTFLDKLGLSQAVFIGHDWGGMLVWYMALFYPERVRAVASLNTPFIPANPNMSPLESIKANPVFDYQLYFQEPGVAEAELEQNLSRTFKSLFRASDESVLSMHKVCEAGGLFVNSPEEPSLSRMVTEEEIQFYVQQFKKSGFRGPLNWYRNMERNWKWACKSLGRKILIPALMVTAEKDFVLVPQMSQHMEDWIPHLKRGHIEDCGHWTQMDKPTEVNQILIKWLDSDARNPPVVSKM

[2] = target: T2, Arachidonate 5-lipoxygenase-activating protein (Homo sapiens, UniProt P20292); assay: Inhibition of 5-LO in human neutrophils preincubated for 10 mins followed by Ca2+ ionophore A23187 addition and measured after 10 mins by RP-HPLC analysis
T2 sequence (P20292 whole entry): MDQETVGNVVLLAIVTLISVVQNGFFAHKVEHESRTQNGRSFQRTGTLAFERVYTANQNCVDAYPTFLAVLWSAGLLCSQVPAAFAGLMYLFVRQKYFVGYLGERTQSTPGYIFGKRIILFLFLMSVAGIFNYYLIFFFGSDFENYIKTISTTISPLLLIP

Row | SMILES | IC50 [1] [nM] | IC50 [2] [nM]
1 | Cc1cc(OCc2nc3ccccc3s2)ccc1NC(=O)Nc1ccc(Cl)c(Cl)c1 | 23 | 
2 | O=C(Nc1ccc(CCc2nc3ccccc3s2)cc1)Nc1ccc(Cl)c(Cl)c1 | 11.7 | > 10000
3 | Cc1cc(OCc2nc3ccccc3s2)ccc1NC(=O)Nc1ccccc1Cl | 1500 | 830
4 | O=C(Nc1ccc(Cl)cc1)Nc1ccc(OCc2nc3ccccc3s2)cc1 | 13.9 | 1010
5 | O=C(Nc1ccc(OCc2nc3ccccc3s2)cc1)Nc1cc(Cl)cc(Cl)c1 | 15.2 | 90
6 | Cc1cc(OCc2nc3ccccc3s2)ccc1NC(=O)Nc1cccc(Cl)c1 | 15.8 | 160
7 | Cc1cc(OCc2nc3ccccc3s2)ccc1NC(=O)Nc1cc(Cl)cc(Cl)c1 | 20 | 80
8 | Cc1cc(NC(=O)Nc2ccccc2)ccc1OCc1nc2ccccc2s1 | 6.5 | 2070
9 | Cc1cc(NC(=O)Nc2ccc(Cl)c(Cl)c2)ccc1OCc1nc2ccccc2s1 | 0.6 | 2170
10 | Cc1cc(NC(=O)Nc2ccccc2Cl)ccc1OCc1nc2ccccc2s1 | 35.1 | 680
11 | O=C(Nc1ccc(OCc2nc3ccccc3s2)cc1)Nc1cccc(Cl)c1 | 25.9 | 170
12 | Cc1cc(NC(=O)Nc2ccc(Cl)cc2)ccc1OCc1nc2ccccc2s1 | 4.1 | > 10000
13 | Cc1cc(OCc2nc3ccccc3s2)ccc1NC(=O)Nc1ccc(Cl)cc1 | 5.2 | 570
14 | O=C(Nc1ccc(OCc2nc3ccccc3s2)cc1)Nc1ccccc1Cl | 279 | 360
15 | Cc1cc(OCc2nc3ccccc3s2)ccc1NC(=O)Nc1ccccc1 | 61.9 | 730
16 | Cc1cc(NC(=O)Nc2cc(Cl)cc(Cl)c2)ccc1OCc1nc2ccccc2s1 | 0.8 | 720
17 | O=C(Nc1ccc(SCc2nc3ccccc3s2)cc1)Nc1ccc(Cl)c(Cl)c1 | 25.2 | 1130
18 | O=C(Nc1ccc(/C=C/c2nc3ccccc3s2)cc1)Nc1ccc(Cl)c(Cl)c1 | 9.1 | 10800
19 | Cc1cc(NC(=O)Nc2cccc(Cl)c2)ccc1OCc1nc2ccccc2s1 | 2 | 2090
20 | O=C(Nc1ccc(OCc2nc3ccccc3s2)cc1)Nc1ccc(Cl)c(Cl)c1 | 10.3 | 570
21 | O=C(Nc1ccccc1)Nc1ccc(OCc2nc3ccccc3s2)cc1 | 111 | 420

Source: ChEMBL document CHEMBL4382289, “Synthesis, Biological Evaluation and Structure-Activity Relationships of Diflapolin Analogues as Dual sEH/FLAP Inhibitors” (ACS Med Chem Lett, 2019)
